In US11124509B2, “Tri-substituted imidazoles for the inhibition of TGF beta and methods of treatment” (CLAVIUS PHARMACEUTICALS, LLC, priority 2017, dated 2021):
Read-outs that look alike come from different tables or passages of the source.

What was measured:
[1] = test system: TGF-beta 1 stimulated SBE-b1a HEK 293T cells; assay: GeneBLAzer beta-lactamase reporter, TGF-beta 1 stimulated SBE-b1a HEK 293T cell-based assay (ThermoFisher SelectScreen); conditions: Homo sapiens, HEK-293T; TGF-beta 1 0.03 nM, 5 hours; inhibitor 10,000 nM to 0.316 nM; sigmoidal dose response curve fit; read-out: Cells (SBE_HEK293T) IC50
Description: (§1) Exemplified compounds were confirmed to inhibit ALK5 activity in enzyme and cellular assays in the following assay systems conducted by ThermoFisher in Madison, Wis. according to their commercially available protocols.
ThermoFisher SelectScreen™ Cell-Based Pathway Profiling Service GeneBLAzer Beta-Lactamase (b1a) Reporter Technology—TGF-Beta 1 Stimulated SBE-b1a HEK 293T Cell-Based Assay
SBE-b1a HEK 293T cells were thawed and re-suspended in Assay Media (OPTI-MEM, 0.5% dialyzed FBS, 0.1 mM NEAA, 1 mM Sodium Pyruvate, 100 U/mL/100 μg/mL Pen/Strep) to a concentration of 625,000 cells/mL. 32 μL of cell suspension (20,000 cells) was added to each well of a 384-well Poly-D-Lysine assay plate. Cells in Assay Media were incubated for 16-24 hours in the plate at 37° C./5% CO2 in a humidified incubator. 4 μL of a 10× serial dilution of ALK5 inhibitors (10x=100,000-3.16 nM) was added to appropriate wells of the plate and pre-incubated at 37° C./5% CO2 in a humidified incubator with cells for 30 minutes. Final concentration of inhibitor ranged from 10,000 nM to 0.316 nM. 4 μL of 10× TGF-beta 1 (final concentration of 0.03 nM) was added to wells containing the inhibitors. The plate was incubated for 5 hours at 37° C./5% CO2 in a humidified incubator. 8 μL of 1 μM Substrate Loading Solution was added to each well and the plate was incubated for 2 hours at room temperature before being read on a fluorescence plate reader. Percent inhibition was determined compared to DMSO only control (maximal TGF-beta 1 stimulation) and sigmoidal dose response curve fit yielded IC50 values as indicated in Table 2.

[2] = target: TGFBR1 (ALK5) (Homo sapiens (Human), UniProt P36897); assay: LanthaScreen Eu Kinase Binding Assay TGFBR1 (ALK5) (ThermoFisher SelectScreen); conditions: read-out: TβRI (ALK5) Binding IC50
Chain of TGFBR1 (ALK5) (P36897 34-503): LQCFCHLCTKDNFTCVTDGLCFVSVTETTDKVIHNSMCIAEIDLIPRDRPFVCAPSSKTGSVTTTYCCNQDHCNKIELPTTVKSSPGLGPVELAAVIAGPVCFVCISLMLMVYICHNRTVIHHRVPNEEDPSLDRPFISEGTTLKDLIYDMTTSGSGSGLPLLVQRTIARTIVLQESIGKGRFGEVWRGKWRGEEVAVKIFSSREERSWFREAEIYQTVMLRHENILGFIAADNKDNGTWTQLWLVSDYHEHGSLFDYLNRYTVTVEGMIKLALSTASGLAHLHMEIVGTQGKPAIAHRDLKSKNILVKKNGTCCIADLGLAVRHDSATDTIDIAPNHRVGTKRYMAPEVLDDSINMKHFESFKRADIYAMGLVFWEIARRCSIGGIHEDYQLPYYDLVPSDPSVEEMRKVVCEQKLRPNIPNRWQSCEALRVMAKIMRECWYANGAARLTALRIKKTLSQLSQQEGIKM
Description: as §1
ThermoFisher SelectScreen™ Biochemical Kinase Profiling Service, LanthaScreen™Eu Kinase Binding Assay TGFBR1 (ALK5)
Exemplified compounds were screened in 1% DMSO (final concentration) by 3-fold serial dilutions from 10,000 nM to 0.316 nM to produce an IC50 or at single concentrations of 10,000, 1000 and 100 nM according to the following protocol. To low volume, white 384-well plates (Greiner Cat #784207) add 160 nL 100× compound in 100% DMSO, 3.84 uL kinase buffer (50 mM HEPES, pH 7.5, 0.01% BRIJ-35, 10 mM MgCl2, 1 mM EGTA), 8 uL 2× kinase/antibody mixture in kinase buffer (final ALK5 concentration of 5 nM; final Eu-anti-GST antibody concentration of 2 nM), 4 uL 4× Tracer #178 in kinase buffer (final concentration of 5 nM). Gently shake the plates for 30 seconds and incubate at room temperature for 1 hour before reading fluorescence on a plate reader. Percent inhibition was determined compared to DMSO only control (maximal ALK5 tracer binding) and sigmoidal dose response curve fit yielded IC50 values as indicated in Table 2.

[3] = compounds marked with an asterisk: evaluated at three concentrations, IC50 depicted as less than the lowest concentration producing >50% inhibition
[4] = 3-fold serial dilutions 10,000 nM to 0.316 nM, ALK5 5 nM, Tracer #178 5 nM, sigmoidal dose response curve fit

SMILES | IC50 [1] | IC50 [2, 3] | IC50 [2, 4]
Cn1ccc(-c2nc(-c3ccc(C(N)=O)cc3)[nH]c2-c2ccc3nccnc3c2)n1 [Compound 43] | 485 nM | < 100 nM | –
Cc1nc(-c2ccn(C)n2)c(-c2ccc3ncsc3c2)[nH]1 [Compound 44, 6-(2-methyl-4-(1-methyl-1H-pyrazol-3-yl)-1H-imidazol-5-yl)benzo[d]thiazole] | 37.4 nM | – | 6.66 nM
CC(C)n1ccc(-c2nc(CNc3cc(F)ccc3F)[nH]c2-c2ccc3nccnc3c2)n1 [Compound 45] | 323 nM | < 100 nM | –
Fc1cccc(NCc2nc(-c3ccn(C(F)F)n3)c(-c3ccc4nccnc4c3)[nH]2)c1 [Compound 46] | 11.6 nM | – | 5.6 nM
N#Cc1cccc(NCc2nc(-c3ccn(C(F)F)n3)c(-c3ccc4nccnc4c3)[nH]2)c1 [Compound 47] | 19.5 nM | – | 6.6 nM
CC(C)n1ccc(-c2nc(CNc3cccc(Cl)c3)[nH]c2-c2ccc3nccnc3c2)n1 [Compound 54] | 211 nM | – | 31.2 nM
Cn1ccc(-c2nc[nH]c2-c2ccc3ncsc3c2)n1 [Compound 55] | 132 nM | – | 4.71 nM
Cn1ccc(-c2nc[nH]c2-c2ccc3nccnc3c2)n1 [Compound 56] | 1050 nM | – | 43.6 nM
CC(C)n1ccc(-c2nc(CNc3ccccc3F)[nH]c2-c2ccc3nccnc3c2)n1 [Compound 57] | 2190 nM | – | 128 nM
CC(C)n1ccc(-c2nc(CNc3cc(F)cc(C(N)=O)c3)[nH]c2-c2ccc3nccnc3c2)n1 [Compound 58] | 3920 nM | – | 78 nM
NC(=O)c1ccc(-c2nc(-c3ccn(C(F)F)n3)c(-c3ccc4ncsc4c3)[nH]2)cc1 [Compound 61] | 65.3 nM | – | 7.55 nM
Cn1ccc(-c2nc(C(N)=O)[nH]c2-c2ccc3ncsc3c2)n1 [Compound 62, 5-(benzo[d]thiazol-6-yl)-4-(1-methyl-1H-pyrazol-3-yl)-1H-imidazole-2-carboxamide] | 1130 nM | – | 45.8 nM
Cc1cc(C(N)=O)cc(C)c1-c1nc(-c2ccn(C)n2)c(-c2ccc3ncsc3c2)[nH]1 [Compound 63] | 3030 nM | – | 399 nM
CNC(=O)c1ccc(-c2nc(-c3ccn(C)n3)c(-c3ccc4ncsc4c3)[nH]2)cc1 [Compound 64, 4-(5-(benzo[d]thiazol-6-yl)-4-(1-methyl-1H-pyrazol-3-yl)-1H-imidazol-2-yl)-N-methylbenzamide] | 632 nM | – | 44.6 nM
CCNC(=O)c1ccc(-c2nc(-c3ccn(C)n3)c(-c3ccc4ncsc4c3)[nH]2)cc1 [Compound 65] | 654 nM | – | 46.2 nM
CN(C)C(=O)c1ccc(-c2nc(-c3ccn(C)n3)c(-c3ccc4ncsc4c3)[nH]2)cc1 [Compound 66] | 1360 nM | – | 285 nM
Fc1cc(F)cc(NCc2nc(-c3ccn(C4CC4)n3)c(-c3ccc4nccnc4c3)[nH]2)c1 [Compound 68] | 10.9 nM | – | 1.2 nM
